Data from US20260035345A1 (Lento Bio, Inc., priority 2023, published 2026).
In brackets after ≈: the same amount, converted by molar mass. Where two headings read alike, the source gives them in different places. Non-standard residues stand in square brackets, D forms with d. Residues, ends and D or L forms follow the SMILES beside them. Aib = CC(C)(N)C(=O)O

Key:
[1] = tested on: ocular lenses from 8-month-old C57BL/6 mice; assay: Ex vivo lens stiffness screen, single-point variant of the coverslip method; parameters: species or system mouse; settings: 20 mM; for Avg. % Compress.: lenses incubated 12 hours at 37° C., 588.0 mg coverslip weight
Procedure: An ex vivo screen was conducted to evaluate the effect of multiple compounds on lens stiffness using a more efficient variant of the coverslip method (Cheng, et al., J. Vis. Exp., 111: 53986 (2016). Our variant uses a single measurement point to enable multidrug screening, utilizing a weight deemed optimal based on coverslip quantity-response curves. Previously dissected and frozen eyes from 8-month-old C57BL/6 mice were thawed, and the ocular lenses were removed via micro-dissection. Next, intact ocular lenses were immersed and incubated in test compound solutions at various concentrations for 12 hours at 37° C. Individual washed lenses were placed into a divot in a solution-filled plexiglass measurement chamber, where uncompressed axial diameter was assessed. Then 3 glass coverslips glued together, with a total weight of 588.0 mg, were placed on top of the lens, and the axial diameter was remeasured. Change in lens stiffness was calculated as the ratio between the axial diameter of compressed lens to the axial diameter of the unweighted lens (compressed/uncompressed), with higher ratios indicative of more flexibility. To address an important limitation with ex vivo lens treatment (that lens stiffness increases over time, by default, when the lens is removed from the eye post-mortem), we compared treatment with NAC to freshly dissected 8-month lenses and observed natural stiffening occurred during the 12-hour incubation period (10.34% mean compression, n=10).

[2] = Maximum soluble concentration in artificial tears; format: physicochemical; settings: saline or isotonic
[3] = tested on: lens stiffness in 7-month-old C57BL/6 mice; assay: In vivo efficacy: lens stiffness after eyedrop treatment (Example 4); parameters: species or system mouse; settings: for average total compression: eyedrops, 28-day treatment, fluoro compound 200 mM, LACE 1.5% (PBS vehicle); for lens stiffness versus vehicle treated mice: fluoro compound 200 mM (also versus LACE), LACE 1.5%
Procedure: Rationale and goal: To determine the effect of N-acetylcysteine (NAC) and its variants on reducing lenses stiffness in vivo.
The following sample groups were tested in 7-month-old C57BL/6 mice: vehicle (artificial tears)(40 mice), N-acetylcysteine 20 mM (20 mice), N-(2-fluoro-2-methyl-1-propylcarbonyl)-cysteine 200 mM (10 mice), LACE (lipoic acid choline ester) 1.5% (PBS vehicle) (10 mice), 2-month-old mice (untreated) (7 mice).
Vehicle-treated mice averaged 199.34 micrometers total compression (std. dev 32.16). […] Mice treated with LACE averaged 209.68 micrometers total compression (std. dev 28.16).

[4] = tested on: Two-month-old C57BL/6 mice; assay: Toxicology and dosing optimization in mice, 1 week of eyedrops (Example 5); format: in vivo, mouse
Procedure: A study was conducted to assess the maximum tolerable dose of N-(2-fluoro-2-methyl-1-propylcarbonyl)-cysteine (and its S-acetylated counterpart, N-(2-fluoro-2-methyl-1-propylcarbonyl)-S-acetylcysteine for lens stiffness reduction and to assess via histology whether any safety issues arose from 1 week of treatment with these compounds, particularly in the lens and cornea.
Two-month-old C57BL/6 mice were treated 2×/day with treatment compounds (see sample groups (n=5) and concentrations below). Animals were assessed for itching and scratching/blinking after dosing, hyperemia, lid swelling, discharge, and squinting, all on a scale of 1-4. Those scoring were blinded to treatment groups. Following euthanasia eyes were fixed and stained with H+E, and corneal and lens anatomy in the two highest concentration groups considered tolerable were assessed.

[5] = Aqueous humor LC/MS concentration comparison (corneal penetration); format: in vivo, mouse; settings: 100 mM eyedrops 2×/day for 1 month; for concentration at 1 h: C57BL/6, mouse, aqueous humor, topical
Procedure: A study was conducted to assess the degree to which N-(2-fluoro-2-methyl-1-propylcarbonyl)-cysteine penetrated the mouse cornea, as compared to NAC and N-pivaloylcysteine.
(§1) Eight-month-old C57BL/6 mice were given […] eyedrops of 100 mM N-(2-fluoro-2-methyl-1-propylcarbonyl)-cysteine, 100 mM N-pivaloylcysteine, or 100 mM NAC for 1 month at 2×/day. 10 mice were present in each group. […] Safety via histology was positive.
On the final day aqueous humor was drawn from the eyes (average of 1-5 μL extracted) 1 hour after final dose, and the concentration of each compound quantified via LC/MS (column: Atlantis T3, 100×2.1 mm, 5 μm; mobile phases: A: Water/Formic Acid (1000/5, v/v), B: Acetonitrile/Methanol/Formic Acid (50/50/0.3, v/v/v).

[6] = tested on: Eight-month-old C57BL/6 mice; assay: One-month eyedrop tolerability and histology in the aqueous humor study; format: in vivo; settings: 100 mM eyedrops 2×/day for 1 month
Procedure: as §1

[7] = tested on: lens stiffness in 7-month-old C57BL/6 mice; assay: Initial in vivo lens stiffness test with NAC eyedrops for one month; parameters: species or system mouse
Procedure: An initial in vivo test was conducted on NAC utilizing 7-month-old C57BL/6 mice subsequently treated for one month 2×/day with both 100 mM and 20 mM NAC eyedrops (artificial tears was used as the vehicle). During the last day, animals were sacrificed, eyes enucleated, and lenses were removed. Lens stiffness was measured by the same assay as ex vivo, with measurements taken within 5-10 minutes of lens removal. Both a 588 mg and 1047 mg weight were used in the assay.

[8] = tested on: ocular lenses from 8-month-old C57BL/6 mice; assay: Ex vivo lens stiffness screen, single-point variant of the coverslip method; parameters: species or system mouse; settings: 1-hour of incubation with NAC
aged mouse lenses = settings: background statement; cited from earlier work
[9] = listed as N-(2-fluoro-2-methyl-1-oxopropyl)-cysteine
[10] = drawn 1 hour after final dose, LC/MS

In the case of `CCC(C)(C)C(=O)N[C@@H](CS)C(=O)O`, the “Avg. % Compress.” value [1] is reported as 6.29%.

Molecule `CC(=O)SCC(NC(=O)C(C)(C)F)C(=O)O` (stereo not drawn) has a solubility ([2]; artificial tears, read-out: maximum soluble concentration in artificial tears) of 300 mM (≈ 75.4 mg/mL).

With `CC(C)(F)C(=O)N[C@@H](CS)C(=O)O` [listing 1 of 2 here] the “improvement over NAC in ex vivo lens stiffness” value [1, 9] was “significant improvement” and the “rank of improvement among tested derivatives, ex vivo lens stiffness” value (“rank” below) [1, 9] was “highest mean significance as well as the highest significance vs vehicle”.

With `CC(C)(F)C(=O)N[C@@H](CS)C(=O)O` [listing 2 of 2 here] the “rank” value [1] was “superior lens stiffness reducing efficacy”, the “Avg. % Compress.” value [1] was 6.87% and the “improvement over NAC in vivo” value ([3]; 200 mM vs N-acetylcysteine 20 mM) was “significant improvement”. The “lens stiffness lost to aging from 2-8 months restored” value ([3]; 200 mM, relative to 2-month-old untreated mice and 8-month vehicle) was 67.9%, the average total compression [3] was 281.05 micrometers and the “lens stiffness versus vehicle treated mice” value [3] was “significantly reduced”. For the same molecule, the tolerability ([4]; 200 mM, 2×/day for 1 week) was “tolerable”, the “Histology of treated lenses” value ([4]; mouse, in vivo) was “entirely normal” and the solubility [2] was 200 mM (≈ 41.8 mg/mL). For the same molecule, the “aqueous humor concentration and corneal penetration over NAC and N-pivaloylcysteine” value [5] was “improved”, the concentration at 1 h [5, 10] was 47 µM and the Safety via histology [6] was “positive”. For the same molecule, the “increase of tolerability issues including blinking or hyperemia over time” value [6] was “No noticeable increase”.

With `COC(C)(C)C(=O)N[C@@H](CS)C(=O)O` the “Avg. % Compress.” value [1] was 6.38%.

In the case of `CC(C)(C(=O)N[C@@H](CS)C(=O)O)c1ccccc1`, the “Avg. % Compress.” value [1] is reported as 6.18%.

For `CC(C)(N)C(=O)N[C@@H](CS)C(=O)O` (H-[Aib]-Cys-OH), the “Avg. % Compress.” value [1] was 5.68%.

For `C[N+](C)(C)CCOC(=O)CCCC[C@@H]1CCSS1` [LACE, Lipoic acid choline ester, reference compound], the average total compression [3] was 209.68 micrometers and the “lens stiffness versus vehicle treated mice” value [3] was “did not significantly improve”.

For `CC(C)C(=O)N[C@@H](CS)C(=O)O` [N-(isopropylcarbonyl)-cysteine], the “Avg. % Compress.” value [1] was 6.71%.

For `CCCCCC(=O)N[C@@H](CS)C(=O)O` [N-(n-pentylcarbonyl)-cysteine], the “Avg. % Compress.” value [1] was 4.31%.

For `CC(=O)N[C@H](CS)C(=O)O` [N-acetyl-D-cysteine], the “improvement versus vehicle (lens stiffness)” value ([7]; a later study, conditions not given) was “significant improvement versus vehicle but at a reduced power versus NAC”.

With `CC(=O)N[C@@H](CS)C(=O)O` [N-acetyl-cysteine, reference compound] the “Avg. % Compress.” value [1] was 5.76%, the “lens stiffness compared to untreated (vehicle) control lenses” value ([1]; ex vivo screen) was “significantly improved” and the “improvement in lens stiffness over vehicle” value ([7]; 20 mM eyedrops 2×/day for one month) was “minor and insignificant improvement”. For the same molecule, the “improvement in lens stiffness over vehicle” value ([7]; 100 mM eyedrops 2×/day for one month, 588 mg and 1047 mg weights) was “significant improvement”, the aqueous humor concentration [5, 10] was 17 out of 20 samples falling below the limit of detection and the “improvement of lens stiffness compared to vehicle” value [8] was 2.07%.

With `O=C(Cc1ccccc1)N[C@@H](CS)C(=O)O` [N-benzylcarbonyl-cysteine] the “Avg. % Compress.” value [1] was 4.38%.

With `O=C(N[C@@H](CS)C(=O)O)C1CC1` [N-cyclopropylcarbonyl-cysteine] the “Avg. % Compress.” value [1] was 6.02%.

In the case of `CN(C)C(=O)N[C@@H](CS)C(=O)O` [N-dimethylaminocarbonyl-cysteine], the “Avg. % Compress.” value [1] is reported as 4.19%.

With `O=C(N[C@@H](CS)C(=O)O)c1ccccc1` [N-phenylcarbonyl-cysteine] the “Avg. % Compress.” value [1] was 5.98%.

With `CC(C)(C)C(=O)N[C@@H](CS)C(=O)O` [N-pivaloylcysteine, N-(2,2-dimethyl-1-oxopropyl)-cysteine] the “improvement over NAC in ex vivo lens stiffness” value [1] was “significant improvement”, the “rank” value [1] was “largest improvement” and the “Avg. % Compress.” value [1] was 6.82%. For the same molecule, the concentration at 1 h [5, 10] was 38 µM, the Safety via histology [6] was “positive” and the “increase of tolerability issues including blinking or hyperemia over time” value [6] was “No noticeable increase”.

In the case of `CC(=O)N[C@@H](CSC(C)=O)C(=O)O` [S,N-diacetylcysteine], the “lens stiffness in ex vivo treated aged mouse lenses” value (aged mouse lenses) is listed as “reduces lens stiffness”.
